From US20120277368A1, “AQUEOUS DISPERSION PRESSURE-SENSITIVE ADHESIVE COMPOSITION AND PRESSURE-SENSITIVE ADHESIVE SHEET” (NITTO DENKO CORPORATION, priority 2011, published 2012)

Assay: Solubility in water (25° C.) of crosslinking agent
Format: physicochemical
Procedure: Furthermore, the compound (B) is a water-soluble compound. […] (parts by weight of the compound capable of being dissolved per 100 parts by weight of water) is 1 g or more (1 g/100 g or more), preferably 10 g or more (10 g/100 g or more), and more preferably 30 g or more (30 g/100 g or more). The solubility of the compound (B) in water can be measured, for example, as follows.
Water (25° C.) and a compound (B), having the same weight, are mixed by using a stirrer under the conditions of a rotation speed of 300 rpm and 10 minutes, and the mixture is separated into an aqueous phase and an oil phase by centrifugation. The aqueous phase is then collected and dried at 120° C. for 1 hour, and the nonvolatile content (parts by weight of the nonvolatile component per 100 parts by weight of water) in the aqueous phase is determined from the weight loss on drying.

For `C1OC1CN(CC1CO1)CC1CO1` (stereo not shown) [N,N,N-tri(2,3-epoxypropyl)amine], the “solubility in water (25° C.)” value was 100 g/100 g.
